Source: patent publication US20100226881A1, “PYRAZOLO[1,5-a]PYRIDINES AND THEIR USE IN CANCER THERAPY” (Auckland Uniservices Limited, priority 2007, published 2010)
Structures can show the parent of a compound that is named as a salt.

Key:
[1] = molecular target: p110β/p85 (Homo sapiens, UniProt P42338); assay: Inhibition of isolated enzyme, PI 3-kinase p110β/p85; type: biochemical; settings: recombinant enzyme, 100 μM ATP, average of two experiments
Method: (§1) Compounds were evaluated for their ability to inhibit the Class I PI 3-kinase enzymes p110δ/p85, p110α/p85 and p110β/p85. Reaction mixtures comprising 0.1 μg of recombinant enzyme, 10 μg of L-α-phosphatidylinositol, the compound (DMSO only or DMSO+compound to a final concentration of 1%), 2× Lipid Kinase Buffer (40 mM Tris-HCl pH 7.4, 200 mM NaCl, 1 mM EDTA) were activated by the addition of an ATP mix (5 mM MgCl2, 100 μM ATP, 0.1 μL [γ^33P]ATP). […] Firstly, 200 μL of chloroform/methanol (1:1) was added, the biphasic reactions mixed and centrifuged briefly, and the inorganic phase was removed and discarded.

[2] = tested on: NZB5; assay: Cellular growth inhibition (3H-thymidine), NZB5; type: cell-based; settings: Homo sapiens, five days, 3H-thymidine incorporation, maximum 20 μM
Method: (§2) The compounds were evaluated against two early passage human cell lines NZB5 and NZOV9, whose development and culture have been described [Marshall et al, Oncol. Res. 2004, 14, 297]. The cells were grown in ITS medium (α-modified minimal essential medium supplemented insulin, transferrin, selenite and 5% fetal bovine serum) and grown on 96-well tissue culture plates under an atmosphere of 5% O2, 5% CO2 and 90% N2. Individual wells contained 500-1000 cells (depending on the growth rate) in a volume of 150 μL. Compounds were added at 10-fold concentration steps to a maximum of 20 μM and plates were incubated for five days, with ^3H-thymidine being added over the last 6 h. Cells were harvested and incorporated radioactivity measured. Duplicate samples were analyzed for each compound dose with multiple control samples. Data were fitted by a least-squares method to an exponential of the form y=y0+ae^−bx, where y is the radioactivity (corrected for background and normalized to 100% of the control) x is the radiation dose, and y0, a and b are variables, and the IC50 value defined as the compound concentration reducing ^3H-thymidine levels by 50%.

[3] = tested on: NZOV9; assay: Cellular growth inhibition (3H-thymidine), NZOV9; type: cell-based; settings: Homo sapiens, five days, 3H-thymidine incorporation, maximum 20 μM
Method: as §2

[4] = molecular target: p110δ/p85 (Homo sapiens, UniProt O00329); assay: Inhibition of isolated enzyme, PI 3-kinase p110δ/p85; type: biochemical; settings: recombinant enzyme, 100 μM ATP, average of two experiments
Sequence of p110δ/p85 (O00329 whole entry, species assumed): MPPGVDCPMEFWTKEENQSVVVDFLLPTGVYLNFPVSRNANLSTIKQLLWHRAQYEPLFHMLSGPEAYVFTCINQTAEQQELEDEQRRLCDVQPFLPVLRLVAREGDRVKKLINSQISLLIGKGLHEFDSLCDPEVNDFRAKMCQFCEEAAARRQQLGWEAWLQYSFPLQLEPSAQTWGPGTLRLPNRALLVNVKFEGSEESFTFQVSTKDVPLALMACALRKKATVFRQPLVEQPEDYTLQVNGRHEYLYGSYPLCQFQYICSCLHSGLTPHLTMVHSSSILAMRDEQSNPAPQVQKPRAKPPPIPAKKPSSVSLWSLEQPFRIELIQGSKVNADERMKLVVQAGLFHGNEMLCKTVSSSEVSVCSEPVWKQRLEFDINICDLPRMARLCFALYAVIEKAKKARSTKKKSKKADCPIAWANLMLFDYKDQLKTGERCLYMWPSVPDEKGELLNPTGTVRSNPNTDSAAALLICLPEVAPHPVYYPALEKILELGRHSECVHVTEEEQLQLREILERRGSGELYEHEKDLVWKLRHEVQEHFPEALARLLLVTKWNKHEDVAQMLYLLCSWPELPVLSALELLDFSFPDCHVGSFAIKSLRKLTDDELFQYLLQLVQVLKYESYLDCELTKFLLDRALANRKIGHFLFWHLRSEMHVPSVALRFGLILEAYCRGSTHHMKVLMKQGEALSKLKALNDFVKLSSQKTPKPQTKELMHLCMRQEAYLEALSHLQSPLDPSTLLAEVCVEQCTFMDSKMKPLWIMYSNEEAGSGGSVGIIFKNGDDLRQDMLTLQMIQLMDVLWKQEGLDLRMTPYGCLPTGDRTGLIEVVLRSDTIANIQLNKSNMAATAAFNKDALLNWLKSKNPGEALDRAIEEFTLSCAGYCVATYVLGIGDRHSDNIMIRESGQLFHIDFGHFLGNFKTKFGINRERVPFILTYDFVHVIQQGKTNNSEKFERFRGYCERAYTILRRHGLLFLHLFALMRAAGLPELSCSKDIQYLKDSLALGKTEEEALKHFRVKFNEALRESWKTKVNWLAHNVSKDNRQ
Sequence of p110δ/p85 (P27986 whole entry partner, species assumed): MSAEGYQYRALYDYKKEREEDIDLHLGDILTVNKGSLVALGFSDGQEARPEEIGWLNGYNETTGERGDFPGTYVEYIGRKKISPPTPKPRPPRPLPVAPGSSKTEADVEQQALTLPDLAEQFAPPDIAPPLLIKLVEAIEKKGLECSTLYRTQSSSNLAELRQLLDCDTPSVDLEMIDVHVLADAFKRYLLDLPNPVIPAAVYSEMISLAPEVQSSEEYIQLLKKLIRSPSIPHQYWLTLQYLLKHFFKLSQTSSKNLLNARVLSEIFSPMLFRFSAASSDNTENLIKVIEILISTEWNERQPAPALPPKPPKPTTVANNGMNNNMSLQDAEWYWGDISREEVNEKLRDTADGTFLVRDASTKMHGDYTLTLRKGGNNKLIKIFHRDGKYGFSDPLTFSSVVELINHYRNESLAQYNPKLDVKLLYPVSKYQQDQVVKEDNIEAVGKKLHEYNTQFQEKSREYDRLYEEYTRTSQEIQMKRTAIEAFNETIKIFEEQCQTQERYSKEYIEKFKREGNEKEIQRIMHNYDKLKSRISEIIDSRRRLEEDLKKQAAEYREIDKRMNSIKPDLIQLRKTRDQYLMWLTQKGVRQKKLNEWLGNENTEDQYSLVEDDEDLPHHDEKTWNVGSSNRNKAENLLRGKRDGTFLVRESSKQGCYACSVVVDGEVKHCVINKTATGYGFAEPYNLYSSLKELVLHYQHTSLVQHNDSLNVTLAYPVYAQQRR
Method: as §1

[5] = molecular target: p110α/p85 (Homo sapiens, UniProt P42336); assay: Inhibition of isolated enzyme, PI 3-kinase p110α/p85; settings: read-out: IC50 (nM) p110α; recombinant enzyme, 100 μM ATP, average of two experiments
Sequence of p110α/p85 (P42336 whole entry, species assumed): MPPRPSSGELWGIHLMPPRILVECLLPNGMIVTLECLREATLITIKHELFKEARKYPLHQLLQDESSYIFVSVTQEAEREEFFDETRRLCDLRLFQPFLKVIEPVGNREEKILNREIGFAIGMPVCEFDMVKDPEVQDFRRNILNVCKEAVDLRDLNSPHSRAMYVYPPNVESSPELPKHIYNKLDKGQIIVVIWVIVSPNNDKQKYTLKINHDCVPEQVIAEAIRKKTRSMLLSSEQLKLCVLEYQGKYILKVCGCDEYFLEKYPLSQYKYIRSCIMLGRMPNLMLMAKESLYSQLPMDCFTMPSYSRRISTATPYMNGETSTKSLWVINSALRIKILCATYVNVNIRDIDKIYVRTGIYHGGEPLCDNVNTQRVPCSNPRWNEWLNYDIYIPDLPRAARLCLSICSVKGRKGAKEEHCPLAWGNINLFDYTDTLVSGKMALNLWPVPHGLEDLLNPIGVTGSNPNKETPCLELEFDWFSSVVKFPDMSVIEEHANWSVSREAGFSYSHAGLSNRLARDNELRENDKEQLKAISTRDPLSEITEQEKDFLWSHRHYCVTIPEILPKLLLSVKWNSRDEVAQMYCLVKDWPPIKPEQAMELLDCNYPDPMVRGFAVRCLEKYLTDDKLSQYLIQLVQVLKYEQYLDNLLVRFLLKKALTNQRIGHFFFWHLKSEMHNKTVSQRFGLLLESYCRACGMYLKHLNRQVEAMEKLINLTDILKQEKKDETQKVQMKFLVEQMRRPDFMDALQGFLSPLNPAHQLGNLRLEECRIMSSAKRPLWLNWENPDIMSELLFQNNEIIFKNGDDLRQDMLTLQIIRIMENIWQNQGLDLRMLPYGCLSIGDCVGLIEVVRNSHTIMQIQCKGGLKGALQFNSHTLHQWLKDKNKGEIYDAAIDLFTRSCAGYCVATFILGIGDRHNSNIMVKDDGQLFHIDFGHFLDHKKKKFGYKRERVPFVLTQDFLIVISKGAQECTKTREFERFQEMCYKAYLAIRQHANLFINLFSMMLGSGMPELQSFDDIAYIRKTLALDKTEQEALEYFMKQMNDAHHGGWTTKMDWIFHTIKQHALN
Sequence of p110α/p85 (P27986 whole entry partner, species assumed): as the sequence (P27986 whole entry partner, species assumed) above

Sequence of p110β/p85 (P42338 whole entry, species assumed): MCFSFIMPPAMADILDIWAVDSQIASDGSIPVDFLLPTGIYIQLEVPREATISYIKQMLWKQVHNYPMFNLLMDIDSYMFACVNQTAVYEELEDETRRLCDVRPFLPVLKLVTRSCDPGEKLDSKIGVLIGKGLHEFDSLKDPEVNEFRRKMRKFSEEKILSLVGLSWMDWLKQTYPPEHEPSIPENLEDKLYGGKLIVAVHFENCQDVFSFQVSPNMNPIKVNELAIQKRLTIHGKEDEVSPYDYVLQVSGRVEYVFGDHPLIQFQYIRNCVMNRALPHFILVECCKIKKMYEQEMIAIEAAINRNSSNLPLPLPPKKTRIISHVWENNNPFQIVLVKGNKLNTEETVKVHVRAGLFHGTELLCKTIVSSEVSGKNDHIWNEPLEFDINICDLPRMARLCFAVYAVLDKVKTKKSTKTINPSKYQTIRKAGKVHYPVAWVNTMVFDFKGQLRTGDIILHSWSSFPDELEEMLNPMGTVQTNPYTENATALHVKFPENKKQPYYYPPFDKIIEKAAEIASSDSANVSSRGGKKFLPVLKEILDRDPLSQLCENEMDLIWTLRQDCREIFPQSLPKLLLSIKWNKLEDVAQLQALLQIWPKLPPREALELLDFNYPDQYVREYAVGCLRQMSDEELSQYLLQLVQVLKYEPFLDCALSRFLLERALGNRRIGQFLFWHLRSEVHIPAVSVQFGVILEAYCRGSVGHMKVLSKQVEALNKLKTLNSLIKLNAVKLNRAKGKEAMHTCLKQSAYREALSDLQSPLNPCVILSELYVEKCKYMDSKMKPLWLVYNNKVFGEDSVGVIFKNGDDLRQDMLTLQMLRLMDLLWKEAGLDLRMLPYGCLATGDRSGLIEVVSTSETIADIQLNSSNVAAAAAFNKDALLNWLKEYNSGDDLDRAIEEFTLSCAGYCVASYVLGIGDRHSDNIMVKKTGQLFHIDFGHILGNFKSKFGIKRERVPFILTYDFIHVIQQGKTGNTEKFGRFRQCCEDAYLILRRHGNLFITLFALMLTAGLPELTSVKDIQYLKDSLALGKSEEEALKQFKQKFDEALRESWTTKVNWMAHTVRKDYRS
Sequence of p110β/p85 (P27986 whole entry partner, species assumed): as the sequence (P27986 whole entry partner, species assumed) above

IC50 [1] [nM] | IC50 [4] [nM] | IC50 [5] [nM] | Structure (SMILES) | IC50 [2] [µM] | IC50 [3] [µM]
47 | 43 | 1.4 | C#Cc1ccn2ncc(C=NN(C)S(=O)(=O)c3cc([N+](=O)[O-])ccc3C)c2c1 [E18, N′-((5-Ethynylpyrazolo[1,5-a]pyridin-3-yl)methylene)-N,2-dimethyl-5-nitrobenzenesulfonohydrazide] | 0.16 | 0.11
620 | 580 | 13 | Cc1ccc([N+](=O)[O-])cc1S(=O)(=O)NN=Cc1cnn2ccc(C#N)cc12 [E42, N′-((5-Cyanopyrazolo[1,5-a]pyridin-3-yl)methylene)-2-methyl-5-nitro-benzenesulfonohydrazide] | 2.5 | 4.9
48 | 39 | 41 | Cc1ccc([N+](=O)[O-])cc1CN(C)N=Cc1cnn2ccc(C#N)cc12 [E84, 3-((2-Methyl-2-(2-methyl-5-nitrobenzyl)hydrazono)methyl)pyrazolo[1,5-a]pyridine-5-carbonitrile] | 1.7 | 1.9
5800 | 230 | 23 | CN(N=Cc1cnn2ccc(C#N)cc12)S(=O)(=O)c1cc([N+](=O)[O-])cnc1Cl [E80, 2-Chloro-N′-((5-cyanopyrazolo[1,5-a]pyridin-3-yl)methylene)-N-methyl-5-nitropyridine-3-sulfonohydrazide] | 7.9 | 3.4
870 | 340 | 86 | Cc1ccc(F)cc1S(=O)(=O)N(C)N=Cc1cnn2ccc(C#N)cc12 [E27, N′-((5-Cyanopyrazolo[1,5-a]pyridin-3-yl)methylene)-5-fluoro-N,2-dimethylbenzenesulfonohydrazide] | > 20 | 14
> 1000 | 26 | 9 | CN(N=Cc1cnn2ccc(C#N)cc12)S(=O)(=O)c1cc([N+](=O)[O-])ccc1NCCN1CCOCC1 [E58, N′-((5-Cyanopyrazolo[1,5-a]pyridin-3-yl)methylene)-N-methyl-2-(2-morpholinoethylamino)-5-nitrobenzenesulfonohydrazide hydrochloride] | 9.4 | > 20
